Assays:
[1] = biological target: Human KDR (residues 790-1356) (Homo sapiens (Human), UniProt P35968); experiment: Human KDR kinase assay, HTRF KinEase (Example B-2); type: biochemical; settings: protocol of Example B-2 (other compounds)
Summary of the method: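 Human KDR residues 790-1356 (0.1 ng/well) in buffer with 5 mM MgCl2, 1 mM MnCl2, 1 mM DTT, biotinylated peptide substrate, ATP at Km (4.0 μM), 3% DMSO, 10 compound concentrations; 40 min, room temperature. EDTA stop, streptavidin-XL665/Eu-TK antibody HTRF read 665/620 nm; 4-parameter IC50.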

[2] = biological target: Human MER (residues 528-999) (Homo sapiens (Human), UniProt Q12866); experiment: Human Mer kinase assay, HTRF KinEase (Example C-2); type: biochemical; settings: protocol of Example C-2 (other compounds)
Summary of the method: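 HTRF KinEase TK assay with MER 528-999 (1 ng/well) in enzymatic buffer plus 5 mM MgCl2 and 1 mM DTT, biotinylated peptide substrate and ATP at Km (40 μM), 3% DMSO final, 60 min at room temperature. Stopped with EDTA detection mix (SA-XL665, TK antibody-Eu3+), read at 665/620 nm after 60 min; IC50 from 10-point 4-parameter fit, normalized to DMSO and 1 μM reference.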

[3] = biological target: Met (phospho-Met, HGF-stimulated PC-3 prostate cancer cells) (Homo sapiens (Human), UniProt P08581); experiment: Met autophosphorylation ELISA in PC-3 cells (Example F); type: cell-based; settings: cellular activity; Met autophosphorylation ELISA in PC-3 cells; read-out: c-Met IC50
Summary of the method: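 Serum-starved (3 h) PC-3 cells were treated 1 h with compounds (8-point curve, 0.3% DMSO), then stimulated with 100 ng/mL human HGF for 10 min. Lysate phospho-Met (panTyr) was measured by sandwich ELISA, normalised to DMSO and reference-inhibitor controls. IC50 came from 4-parameter logistic fit.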

[4] = biological target: KDR (phospho-KDR, VEGF165-stimulated HUVEC cells) (Homo sapiens (Human), UniProt P35968); experiment: KDR autophosphorylation ELISA in HUVEC cells (Example G); type: cell-based; settings: cellular activity; KDR autophosphorylation ELISA in HUVEC cells
Summary of the method: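 IC50 values derive from nonlinear curve fitting of phospho-KDR levels measured by ELISA and interpolated from a phosphoprotein standard. Beforehand, starved HUVECs received compound (0.3% DMSO vehicle) for one hour and were activated with VEGF165 at 100 ng/mL for 5 min.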

Chain of Human KDR (residues 790-1356) (P35968 790-1356): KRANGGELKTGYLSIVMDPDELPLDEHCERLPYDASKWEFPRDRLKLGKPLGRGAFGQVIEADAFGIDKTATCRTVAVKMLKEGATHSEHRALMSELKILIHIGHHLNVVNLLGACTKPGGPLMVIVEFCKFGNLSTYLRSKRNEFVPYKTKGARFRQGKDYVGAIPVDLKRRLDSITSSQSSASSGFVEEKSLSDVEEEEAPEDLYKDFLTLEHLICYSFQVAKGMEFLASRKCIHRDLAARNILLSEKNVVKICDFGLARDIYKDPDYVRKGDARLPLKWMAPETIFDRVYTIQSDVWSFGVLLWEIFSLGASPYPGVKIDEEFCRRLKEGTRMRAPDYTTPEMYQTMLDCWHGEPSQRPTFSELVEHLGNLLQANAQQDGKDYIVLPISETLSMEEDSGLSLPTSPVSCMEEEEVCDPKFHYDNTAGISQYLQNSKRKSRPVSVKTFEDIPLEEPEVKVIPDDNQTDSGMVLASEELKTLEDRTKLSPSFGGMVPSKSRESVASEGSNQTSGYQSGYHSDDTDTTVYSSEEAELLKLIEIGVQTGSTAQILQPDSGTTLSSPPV
Chain of Met (phospho-Met, HGF-stimulated PC-3 prostate cancer cells) (P08581 25-1390): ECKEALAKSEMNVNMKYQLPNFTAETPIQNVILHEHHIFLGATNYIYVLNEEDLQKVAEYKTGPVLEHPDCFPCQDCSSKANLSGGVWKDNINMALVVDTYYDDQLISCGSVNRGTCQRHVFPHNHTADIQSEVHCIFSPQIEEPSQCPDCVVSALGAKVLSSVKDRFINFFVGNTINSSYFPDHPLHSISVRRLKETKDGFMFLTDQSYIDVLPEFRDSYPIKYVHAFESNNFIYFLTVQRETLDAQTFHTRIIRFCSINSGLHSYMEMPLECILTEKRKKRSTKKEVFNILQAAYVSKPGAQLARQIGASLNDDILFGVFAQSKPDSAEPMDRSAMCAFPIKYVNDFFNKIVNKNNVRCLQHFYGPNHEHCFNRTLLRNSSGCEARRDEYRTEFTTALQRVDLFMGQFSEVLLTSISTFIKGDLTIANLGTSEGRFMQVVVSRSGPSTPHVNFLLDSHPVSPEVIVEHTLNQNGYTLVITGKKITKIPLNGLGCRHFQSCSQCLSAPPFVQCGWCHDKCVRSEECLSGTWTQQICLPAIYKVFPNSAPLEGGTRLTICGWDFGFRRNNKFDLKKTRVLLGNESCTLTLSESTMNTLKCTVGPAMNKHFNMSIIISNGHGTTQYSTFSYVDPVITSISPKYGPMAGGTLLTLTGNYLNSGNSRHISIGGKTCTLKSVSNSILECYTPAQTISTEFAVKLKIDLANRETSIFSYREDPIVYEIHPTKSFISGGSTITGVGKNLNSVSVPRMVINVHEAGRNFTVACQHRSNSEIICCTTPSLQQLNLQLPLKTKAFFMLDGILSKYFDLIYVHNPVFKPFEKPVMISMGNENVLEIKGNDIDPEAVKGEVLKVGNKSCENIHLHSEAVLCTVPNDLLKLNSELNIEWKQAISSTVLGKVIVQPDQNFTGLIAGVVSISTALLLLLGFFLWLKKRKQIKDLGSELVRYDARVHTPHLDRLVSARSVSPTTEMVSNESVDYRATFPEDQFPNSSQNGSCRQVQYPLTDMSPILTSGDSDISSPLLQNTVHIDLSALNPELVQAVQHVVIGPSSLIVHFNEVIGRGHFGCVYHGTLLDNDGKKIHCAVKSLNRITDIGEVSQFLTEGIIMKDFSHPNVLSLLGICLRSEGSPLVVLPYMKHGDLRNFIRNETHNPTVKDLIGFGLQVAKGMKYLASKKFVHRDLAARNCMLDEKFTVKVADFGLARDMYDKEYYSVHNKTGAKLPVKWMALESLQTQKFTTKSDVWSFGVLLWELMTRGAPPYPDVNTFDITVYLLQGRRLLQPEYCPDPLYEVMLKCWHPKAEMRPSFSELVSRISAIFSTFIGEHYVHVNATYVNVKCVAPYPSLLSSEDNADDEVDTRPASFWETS
Chain of KDR (phospho-KDR, VEGF165-stimulated HUVEC cells) (P35968 20-1356): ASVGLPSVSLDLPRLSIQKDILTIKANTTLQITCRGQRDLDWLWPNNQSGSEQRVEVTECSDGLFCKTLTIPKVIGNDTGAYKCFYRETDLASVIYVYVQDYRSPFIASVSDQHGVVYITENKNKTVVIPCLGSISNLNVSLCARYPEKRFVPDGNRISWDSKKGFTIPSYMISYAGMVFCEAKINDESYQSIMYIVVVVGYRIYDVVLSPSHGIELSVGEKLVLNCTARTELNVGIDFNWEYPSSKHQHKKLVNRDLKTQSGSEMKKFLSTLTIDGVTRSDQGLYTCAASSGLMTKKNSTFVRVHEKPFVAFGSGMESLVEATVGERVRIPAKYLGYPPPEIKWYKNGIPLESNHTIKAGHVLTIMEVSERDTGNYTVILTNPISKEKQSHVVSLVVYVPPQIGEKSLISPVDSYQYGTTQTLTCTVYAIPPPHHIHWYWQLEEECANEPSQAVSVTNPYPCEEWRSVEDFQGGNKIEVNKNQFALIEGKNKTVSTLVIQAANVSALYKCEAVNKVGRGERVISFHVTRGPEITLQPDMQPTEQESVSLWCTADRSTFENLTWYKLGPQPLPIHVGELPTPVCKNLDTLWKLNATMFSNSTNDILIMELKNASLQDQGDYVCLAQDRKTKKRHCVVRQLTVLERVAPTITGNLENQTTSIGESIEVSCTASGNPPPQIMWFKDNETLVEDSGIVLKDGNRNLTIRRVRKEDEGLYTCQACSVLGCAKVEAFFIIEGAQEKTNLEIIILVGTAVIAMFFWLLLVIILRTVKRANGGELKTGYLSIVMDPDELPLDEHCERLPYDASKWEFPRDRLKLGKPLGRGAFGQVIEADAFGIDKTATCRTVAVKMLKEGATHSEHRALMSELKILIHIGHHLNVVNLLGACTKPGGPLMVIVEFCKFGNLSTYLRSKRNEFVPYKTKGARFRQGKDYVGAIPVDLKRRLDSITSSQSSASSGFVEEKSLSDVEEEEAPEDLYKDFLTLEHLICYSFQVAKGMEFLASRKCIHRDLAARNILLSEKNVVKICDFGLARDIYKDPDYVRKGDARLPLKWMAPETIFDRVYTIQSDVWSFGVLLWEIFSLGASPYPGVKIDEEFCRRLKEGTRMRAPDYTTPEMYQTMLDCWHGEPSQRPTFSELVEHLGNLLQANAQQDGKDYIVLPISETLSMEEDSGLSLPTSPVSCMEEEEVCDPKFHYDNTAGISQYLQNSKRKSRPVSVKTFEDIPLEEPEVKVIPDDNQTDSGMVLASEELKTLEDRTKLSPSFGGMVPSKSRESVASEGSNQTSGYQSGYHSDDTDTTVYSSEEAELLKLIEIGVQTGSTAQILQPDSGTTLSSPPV
Chain of Human MER (residues 528-999) (Q12866 528-999): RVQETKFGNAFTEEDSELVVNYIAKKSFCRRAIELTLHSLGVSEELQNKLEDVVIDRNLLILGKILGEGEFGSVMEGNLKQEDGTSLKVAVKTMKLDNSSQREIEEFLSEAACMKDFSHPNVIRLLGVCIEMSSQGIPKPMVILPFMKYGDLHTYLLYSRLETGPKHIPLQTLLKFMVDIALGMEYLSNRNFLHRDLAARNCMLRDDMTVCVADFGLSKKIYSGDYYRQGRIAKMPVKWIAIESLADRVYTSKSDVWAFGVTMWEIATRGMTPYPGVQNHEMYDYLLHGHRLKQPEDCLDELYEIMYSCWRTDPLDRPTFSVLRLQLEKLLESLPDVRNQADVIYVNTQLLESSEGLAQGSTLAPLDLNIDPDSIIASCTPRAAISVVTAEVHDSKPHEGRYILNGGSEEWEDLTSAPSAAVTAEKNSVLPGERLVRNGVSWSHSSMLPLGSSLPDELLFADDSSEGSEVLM

Row | Structure (SMILES) | IC50 [1] [nM] | IC50 [2] [nM] | IC50 [3] [nM] | IC50 [4] [nM]
1 | COc1cc2nccc(Oc3ccc(NC(=O)c4cn(C(C)(C)C)cc(-c5ccc(F)cc5)c4=O)cc3F)c2nc1OC [Compound 48, 1-tert-Butyl-N-[4-[(6,7-dimethoxy-1,5-naphthyridin-4-yl)oxy]-3-fluorophenyl]-5-(4-fluorophenyl)-4-oxopyridine-3-carboxamide] | > 300 | < 100 | < 100 | > 300
2 | COc1cc2nccc(Oc3ccc(NC(=O)c4cn(-c5ccn(C)n5)cc(-c5ccc(F)cc5)c4=O)cc3F)c2nc1OC [Compound 53, N-[4-[(6,7-Dimethoxy-1,5-naphthyridin-4-yl)oxy]-3-fluorophenyl]-5-(4-fluorophenyl)-1-(1-methylpyrazol-3-yl)-4-oxopyridine-3-carboxamide] | > 300 | < 100 | < 100 | > 300
3 | COc1cc2nccc(Oc3ccc(NC(=O)c4cn(C)c(C)c(-c5ccc(F)cc5)c4=O)cc3F)c2nc1OC [Compound 58, N-[4-[(6,7-Dimethoxy-1,5-naphthyridin-4-yl)oxy]-3-fluorophenyl]-5-(4-fluorophenyl)-1,6-dimethyl-4-oxopyridine-3-carboxamide] | < 100 | < 100 | < 100 | < 100
4 | COc1cc2nccc(Oc3ccc(NC(=O)c4cn(C5(C(F)(F)F)CC5)cc(-c5ccc(F)cc5)c4=O)cc3F)c2nc1OC [Compound 59, N-[4-[(6,7-Dimethoxy-1,5-naphthyridin-4-yl)oxy]-3-fluorophenyl]-5-(4-fluorophenyl)-4-oxo-1-[1-(trifluoromethyl)cyclopropyl]pyridine-3-carboxamide] | 100 to 300 | < 100 | < 100 | > 300
5 | COc1cc2nccc(Oc3ccc(NC(=O)c4cn(-c5cnn(C(F)F)c5)cc(-c5ccc(F)cc5)c4=O)cc3F)c2nc1OC [Compound 60, 1-[1-(Difluoromethyl)pyrazol-4-yl]-N-[4-[(6,7-dimethoxy-1,5-naphthyridin-4-yl)oxy]-3-fluorophenyl]-5-(4-fluorophenyl)-4-oxopyridine-3-carboxamide] | > 300 | < 100 | < 100 | > 300
6 | COc1cc2nccc(Oc3ccc(NC(=O)c4cn(-c5cc[nH]n5)cc(-c5ccc(F)cc5)c4=O)cc3F)c2nc1OC [Compound 61, N-[4-[(6,7-Dimethoxy-1,5-naphthyridin-4-yl)oxy]-3-fluorophenyl]-5-(4-fluorophenyl)-4-oxo-1-(1H-pyrazol-3-yl)pyridine-3-carboxamide] | > 300 | < 100 | < 100 | > 300
7 | COc1cc2nccc(Oc3ccc(NC(=O)c4cn(-c5cn[nH]c5)cc(-c5ccc(F)cc5)c4=O)cc3F)c2nc1OC [Compound 62, N-[4-[(6,7-Dimethoxy-1,5-naphthyridin-4-yl)oxy]-3-fluorophenyl]-5-(4-fluorophenyl)-4-oxo-1-(1H-pyrazol-4-yl)pyridine-3-carboxamide] | > 300 | < 100 | < 100 | > 300
8 | CCn1cc(C(=O)Nc2ccc(Oc3ccnc4cc(OC)c(OC)nc34)c(F)c2)c(=O)c(-c2ccc(F)cc2)c1C [Compound 63, N-[4-[(6,7-Dimethoxy-1,5-naphthyridin-4-yl)oxy]-3-fluorophenyl]-1-ethyl-5-(4-fluorophenyl)-6-methyl-4-oxopyridine-3-carboxamide] | < 100 | < 100 | < 100 | < 100
9 | COc1cnc2c(Oc3ccc(NC(=O)c4cnc(C)c(-c5ccc(F)cc5)c4O)cc3F)ccnc2c1 [Compound 64, N-[3-Fluoro-4-[(7-methoxy-1,5-naphthyridin-4-yl)oxy]phenyl]-5-(4-fluorophenyl)-4-hydroxy-6-methylpyridine-3-carboxamide] | < 100 | < 100 | < 100 | < 100
10 | COc1cc2nccc(Oc3ccc(NC(=O)c4cn(C)c(C)c(-c5ccc(F)cc5)c4=O)cc3)c2nc1OC [Compound 65, N-[4-[(6,7-Dimethoxy-1,5-naphthyridin-4-yl)oxy]phenyl]-5-(4-fluorophenyl)-1,6-dimethyl-4-oxopyridine-3-carboxamide] | < 100 | < 100 | < 100 | < 100
11 | COc1cnc2c(Oc3ccc(NC(=O)c4c(C)nc(C)c(-c5ccc(F)cc5)c4O)cc3F)ccnc2c1 [Compound 66, N-[3-Fluoro-4-[(7-methoxy-1,5-naphthyridin-4-yl)oxy]phenyl]-5-(4-fluorophenyl)-4-hydroxy-2,6-dimethylpyridine-3-carboxamide] | < 100 | < 100 | < 100 | < 100
12 | COc1ccc2nccc(Oc3ccc(NC(=O)c4c(C)nc(C)c(-c5ccc(F)cc5)c4O)cc3F)c2n1 [Compound 67, N-[3-Fluoro-4-[(6-methoxy-1,5-naphthyridin-4-yl)oxy]phenyl]-5-(4-fluorophenyl)-4-hydroxy-2,6-dimethylpyridine-3-carboxamide] | < 100 | < 100 | < 100 | < 100
13 | COCCOc1nc2c(Oc3ccc(NC(=O)c4cnc(C)c(-c5ccc(F)cc5)c4O)cc3F)ccnc2cc1OC [Compound 68, N-[3-Fluoro-4-[[7-methoxy-6-(2-methoxyethoxy)-1,5-naphthyridin-4-yl]oxy]phenyl]-5-(4-fluorophenyl)-4-hydroxy-6-methylpyridine-3-carboxamide] | < 100 | < 100 | < 100 | < 100
14 | COc1cc2nccc(Oc3ccc(NC(=O)c4cnc(C)c(-c5ccc(F)cc5C)c4O)cc3F)c2nc1OC [Compound 69, N-[4-[(6,7-Dimethoxy-1,5-naphthyridin-4-yl)oxy]-3-fluorophenyl]-5-(4-fluoro-2-methylphenyl)-4-hydroxy-6-methylpyridine-3-carboxamide] | < 100 | < 100 | < 100 | < 100
15 | COc1ccc2nccc(Oc3ccc(NC(=O)c4c(C)nc(C)c(-c5ccc(F)cc5C)c4O)cc3F)c2n1 [Compound 70, N-[3-Fluoro-4-[(6-methoxy-1,5-naphthyridin-4-yl)oxy]phenyl]-5-(4-fluoro-2-methylphenyl)-4-hydroxy-2,6-dimethylpyridine-3-carboxamide] | 100 to 300 | < 100 | < 100 | < 100
16 | COc1cc2nccc(Oc3ccc(NC(=O)c4cnc(CO)c(-c5ccc(F)cc5)c4O)cc3F)c2nc1OC [Compound 71, N-[4-[(6,7-Dimethoxy-1,5-naphthyridin-4-yl)oxy]-3-fluorophenyl]-5-(4-fluorophenyl)-4-hydroxy-6-(hydroxymethyl)pyridine-3-carboxamide] | < 100 | < 100 | < 100 | < 100
17 | COc1cc2nccc(Oc3ccc(NC(=O)c4cn(C)c(CO)c(-c5ccc(F)cc5)c4=O)cc3F)c2nc1OC [Compound 72, N-[4-[(6,7-Dimethoxy-1,5-naphthyridin-4-yl)oxy]-3-fluorophenyl]-5-(4-fluorophenyl)-6-(hydroxymethyl)-1-methyl-4-oxopyridine-3-carboxamide] | 100 to 300 | < 100 | < 100 | 100 to 300
